# Values quoted from earlier work, collected in patent publication US20220304959A1, “TREATMENT OF LONG HAULERS SYNDROME WITH NICLOSAMIDE” (First Wave BioPharma, priority 2021, published 2022).
compound,measurement,setting,value
"O=C(Nc1ccc([N+](=O)[O-])cc1Cl)c1cc(Cl)ccc1O [niclosamide, 5-chloro-N-(2-chloro-4-nitrophenyl)-2-hydroxybenzamide]",Overall safety profile,"administered to millions of people, including children",very good safety profile
same,"Less frequently reported AEs: rash, oral irritation, fever, rectal bleeding, weakness, bad taste in mouth, sweating, palpitation, constipation, alopecia, oedema of an arm, backache, irritability","human use, literature reports",< 1%
same,"Other reported AEs: vomiting; abdominal discomfort possibly associated with anorexia, diarrhea, drowsiness, dizziness and headache","human use, literature reports",1-4 % of patients
